# Source: PMC8098127, “A new crystal form of GABARAPL2” (Acta Crystallographica. Section F, Structural Biology …, 2021)
# Molecular target: T1, GABARAPL2 (Homo sapiens, UniProt P60520)
# T1 construct: GST (N, cleaved yes); made in house; host or cells: E. coli BL21 (DE3)
# Test: Surface plasmon resonance (SPR) binding of GABARAPL2 to captured NDP52 I133W LIR peptide, steady state
# Settings: full-length GABARAPL2 (C-terminal Phe117 present) injected over N-terminal LC-biotin peptide on streptavidin chip, BIAcore S200, 10 mM HEPES, 150 mM NaCl, 3.4 mM EDTA, 0.05% Tween pH 7.4, threefold, ten-step dilution series, injected 160 s, 800 s dissociation, steady-state fit, report point 145 s after injection
# Method: GABARAPL2 was expressed and purified as described previously (Muhlinen et al., 2012[▸]). Briefly, Escherichia coli strain BL21 (DE3) cells were transformed with a pETM-30 plasmid harbouring the GABARAPL2 gene (Table 1 ▸). The cells were grown in 1 l Luria Broth (LB) medium supplemented with 100 mg l^−1 kanamycin at 37°C with agitation. Gene expression was induced when the cell density (OD600) reached approximately 0.6 by the addition of […] isopropyl β-D-1-thiogalactopyranoside (IPTG) for 3 h. Cell pellets were obtained by centrifugation at 5000g for 10 min and were lysed by sonication in lysis buffer (50 mM Tris pH 8.0, 150 mM NaCl, 1 mM EDTA) at 4°C. The lysate was clarified by centrifugation at 45 000g for 45 min and was filtered through a […] filter and immobilized on a column containing 1 ml Gluthathione Sepharose 4B resin (GE Life Sciences). GABARAPL2 was cleaved from the GST fusion protein on-column with 200 µg TEV protease and 0.5 mM TCEP overnight at 4°C. […]
# Surface plasmon resonance (SPR) binding assays were performed using a BIAcore S200 in SPR buffer consisting of 10 mM HEPES, 150 mM NaCl, 3.4 mM EDTA, 0.05% Tween pH 7.4. […] The sensorgrams were analysed at steady state using a report point 145 s after injection, averaging the response over 5 s. […]
# T1 sequence (P60520 with tags, fused parts or gaps): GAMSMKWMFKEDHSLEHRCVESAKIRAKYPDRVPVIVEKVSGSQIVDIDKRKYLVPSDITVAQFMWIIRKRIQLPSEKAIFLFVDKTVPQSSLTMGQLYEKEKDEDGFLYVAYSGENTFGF
smiles,measurement,setting,value
"CC(C)C[C@H](NC(=O)[C@H](Cc1c[nH]c2ccccc12)NC(=O)[C@H](CC(=O)O)NC(=O)[C@H](CCC(=O)O)NC(=O)[C@H](CCC(=O)O)NC(=O)[C@H](CC(N)=O)NC(=O)[C@@H](N)CCC(=O)O)C(=O)N[C@H](C(=O)N[C@H](C(=O)N[C@H](C(=O)N[C@H](C(=O)N[C@@H](CCC(N)=O)C(=O)NCC(=O)N[C@@H](CCC(=O)O)C(=O)O)[C@@H](C)O)[C@@H](C)O)C(C)C)C(C)C [NDP52 I133W LIR peptide, ENEEDWLVVTTQGE]",Kd,SPR Experiment 1,4.85 µM
same,Kd,SPR Experiment 2,5.07 µM
